In patent publication US9688712B2, “Manufacturing method for polyphenol composition” (KAO CORPORATION, priority 2010, dated 2017):
Read-outs that look alike come from different tables or passages of the source.

Key:
[1] = cited from earlier work
[2] = Measurement of log P value of the hardly water-soluble polyphenols (flask shaking method, JIS Z7260-107)
Method: The log P value is a common logarithm of the partition coefficient between 1-octanol, and water and an index indicative of a hydrophobicity of an organic compound. Larger positive log P value indicates larger hydrophobicity. […] The details are described in Examples.
[Measurement of Log P Value of the Hardly Water-Soluble Polyphenols]
First, 1-octanol and distilled water were shaken for 24 hours at 25° C. to equilibrate them. Then, 10 mg of polyphenol was weighed into a glass vial with a cap, into which each of 4 mL of the equilibrated 1-octanol and water was added. The vial was shaken for 4 days at 25° C. […] Log P value is a common logarithm of the partition coefficient between the two phases.

For COc1ccc([C@@H]2CC(=O)c3c(O)cc(O[C@@H]4O[C@H](CO[C@@H]5O[C@@H](C)[C@H](O)[C@@H](O)[C@H]5O)[C@@H](O)[C@H](O)[C@H]4O)cc3O2)cc1O [Hesperidin, hesperidin], the “solubility in water at 25° C.” value [1] is listed as 0.02 mg/g.

In the case of COc1cc(/C=C/C(=O)CC(=O)/C=C/c2ccc(O)c(OC)c2)ccc1O [curcumin], the logP at 4 days [2] is reported as 3.29.

Work on Oc1ccc(C=Cc2cc(O)cc(O)c2)cc1 [resveratrol] yielded a logP at 4 days ([2]; 1-octanol/water) of 3.08.
